Experimental data from patent publication US20250313560A1, “Novel bicyclic benzylamido pyridine derivatives as SOS1 inhibitors” (Boehringer Ingelheim International GmbH, priority 2024, published 2025).
Where two headings read alike, the source gives them in different places.

Experiments:
P450 3A4 = P450 3A4 (Homo sapiens (Human), UniProt P08684); experiment: Cytochrome P450 isoenzyme inhibition assay (P450 3A4, midazolam); assay type: in vitro ADME; details: human liver microsomes, Midazolam as substrate; read-out: CYP3A4 inhibition IC50
Sequence of P450 3A4 (P08684 whole entry): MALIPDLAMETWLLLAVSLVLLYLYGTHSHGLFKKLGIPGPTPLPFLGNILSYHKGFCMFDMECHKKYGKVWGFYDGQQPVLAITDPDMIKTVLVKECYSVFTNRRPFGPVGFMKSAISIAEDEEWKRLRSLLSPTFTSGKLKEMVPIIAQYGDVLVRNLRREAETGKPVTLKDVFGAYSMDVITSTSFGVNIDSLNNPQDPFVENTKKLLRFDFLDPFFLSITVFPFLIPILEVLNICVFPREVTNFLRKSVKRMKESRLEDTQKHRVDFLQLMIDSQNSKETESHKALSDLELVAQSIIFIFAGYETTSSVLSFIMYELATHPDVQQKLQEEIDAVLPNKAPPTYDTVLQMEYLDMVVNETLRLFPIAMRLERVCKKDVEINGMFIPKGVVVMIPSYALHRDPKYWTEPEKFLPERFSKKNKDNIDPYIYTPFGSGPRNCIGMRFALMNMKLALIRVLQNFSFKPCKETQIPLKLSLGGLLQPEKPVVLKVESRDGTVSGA
Description: For the following cytochrome P450 isoenzymes, these substrates and metabolic reactions are monitored: P450 3A4: hydroxylation of Midazolam (MDZ).
The final incubation volume contains TRIS buffer (0.1 M), MgCl2 (5 mM), a certain concentration of human liver microsomes dependent on the P450 isoenzyme measured (P450 3A4: 0.1 mg/ml) and a certain concentration of the individual substrate for each isoenzyme (P450 3A4: Midazolam 5 μM).
The effect of the test compound is determined at five different concentrations in duplicate (e.g. highest concentration 50 μM with subsequent serial 1:4 dilutions) or without test compound (high control). Following a short preincubation period, reactions are started with the cofactor (NADPH, 1 mM) and stopped by cooling the incubation down to 8° C. and subsequently by addition of one volume of ACN. An internal standard solution—usually the stable isotope of the formed metabolite—is added after quenching of incubations. Peak area analyte (=metabolite formed) and internal standard is determined by LC-MS/MS. The resulting peak area ratio analyte to internal standard in these incubations is compared to a control activity containing no test compound. Within each of the assay runs, the IC50 of a positive control inhibitor dependent on the P450 isoenzyme measured (P450 3A4: ketoconazole) is determined. The assay results are plotted against compound concentrations to calculated IC50 values (half maximal inhibitory concentrations) for inhibitory compounds utilizing Software IDBS E-WorkBook.
Table 4: Inhibition of P450 isoenzyme 3A^4.

[1] = tested on: ERK phosphorylation in NCI-H358 SOS2 KO cells (KRAS G12C); experiment: Erk phosphorylation assay; assay type: cell-based, human; details: EGF stimulated, average of at least two measurements, read-out: pERK IC50
Description: Low IC50 values are indicative of high potency of the SOS1 inhibitor compounds in this assay setting.
ERK phosphorylation assays are performed using the following human cell line: • NCI-H358 SOS2 KO (Hofmann, Gmachl, Ramharter et al, Cancer Discov. 2021, 11(1):142-15): human lung cancer with a KRAS G12C mutation;
NCI-H358 SOS2 KO are seeded at 50000 cells per well in 60 μL of DMEM with 2% FBS, in Greiner TC 384 plates. The cells are incubated overnight in an incubator at 37° C. and 5% CO2 in a humidified atmosphere. 60 nL compound solution (10 mM DMSO stock solution) is then added using a Beckman Coulter Labcyte Echo 550 device. After 50 min incubation in the aforementioned incubator, 5 nl EGF are added to each well for a final concentration of approx. 8 ng/mL using a Beckman Coulter Labcyte Echo 550 device and cells are incubated for another 10-15 minutes before lysis. The medium is removed, and the cells are lysed by addition of 20 μL of 1.6-fold lysis buffer from the AlphaLISA SureFire Ultra pERK1/2 (Thr202/Tyr204) Assay Kit with added protease inhibitors. After 20 minutes of incubation at rt with shaking, 6 μL of each lysate sample is transferred to a 384-well Proxiplate and analyzed for pERK (Thr202/Tyr204) with the AlphaLISA SureFire Ultra pERK1/2 (Thr202/Tyr204) Assay Kit. 3 μL Acceptor Mix and 3 μL Donor Mix are added under subdued light and incubated for 2 h at rt in the dark, before the signal is measured on a Perkin Elmer Envision plate reader using 384 AlphaScreen settings for Proxiplates. Data are fitted by iterative calculation with variable hill slope. The sigmoidal curve slope is fitted using a default fitting curve to ascertain IC50 values.
Table 2: Erk Phosphorylation assay. The value indicates an average value of at least two measurements.

SOS1 and KRAS G12D = SOS1 and KRAS G12D (Homo sapiens (Human), UniProt Q07889); experiment: KRAS::SOS1 AlphaScreen binding assay (KRAS G12D); details: average of at least two measurements
Sequence of SOS1 and KRAS G12D (Q07889 564-1049, stated change not applied): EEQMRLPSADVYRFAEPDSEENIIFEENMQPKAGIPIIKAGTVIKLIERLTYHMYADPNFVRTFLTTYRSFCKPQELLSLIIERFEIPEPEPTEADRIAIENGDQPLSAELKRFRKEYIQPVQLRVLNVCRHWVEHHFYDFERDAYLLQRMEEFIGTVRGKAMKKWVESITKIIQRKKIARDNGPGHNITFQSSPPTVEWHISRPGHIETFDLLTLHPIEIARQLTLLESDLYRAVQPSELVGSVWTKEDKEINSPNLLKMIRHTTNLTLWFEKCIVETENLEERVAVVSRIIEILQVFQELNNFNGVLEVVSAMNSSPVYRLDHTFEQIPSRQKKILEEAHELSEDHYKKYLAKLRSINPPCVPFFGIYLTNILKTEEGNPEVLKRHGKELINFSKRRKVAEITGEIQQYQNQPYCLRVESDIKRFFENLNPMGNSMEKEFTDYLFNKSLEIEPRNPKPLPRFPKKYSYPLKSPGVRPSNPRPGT
Description: (§1) Low IC50 values are indicative of high potency of the SOS1 inhibitor compound in this assay setting:
(§2) • GST-tagged SOS1 (564_1049_GST_TEV_ECO) produced in-house • 6xHis-Tev-K-RasG12D/G12C(1-169)Avi produced in-house • GDP (Sigma Cat No G7127) • AlphaLISA Glutathione Acceptor Beads (PerkinElmer, Cat No AL109) • AlphaScreen Streptavidin Donor Beads (PerkinElmer Cat No 6760002) • Assay plates: Proxiplate-384 PLUS, white (PerkinElmer, Cat No 6008289)
(§3) [formula] • KRAS::SOS1 GDP mix: • 7.5 nM (final assay concentration) K-RasG12C, 10 nM (final assay concentration) K-RasG12D, 10 μM (final assay concentration) GDP and 5 nM (final assay concentration) GST-SOS1 are mixed in assay buffer prior to use and kept at rt. Bead mix: • AlphaLISA Glutathione Acceptor Beads and AlphaScreen Streptavidin Donor Beads are mixed in the dark in assay buffer at a concentration of 10 μg/mL (final assay concentration) each prior to use and kept at rt.
(§4) Compounds are diluted to a final start concentration of 100 μM and are tested in duplicate. Assay-ready plates (ARPs) are generated using an Access Labcyte Workstation with a Labcyte Echo 550 or 555 acoustic dispenser. For compound a start concentration of 100 μM, 150 nL of compound solution is transferred per well in 11 concentrations in duplicate with serial 1:5 dilutions.
(§5) The assay is run using a fully automated robotic system in a darkened room below 100 Lux. 10 μL of KRAS::SOS1 GDP mix is added into columns 1-24 to the 150 nL of compound solution (final dilution in the assay 1:100, final DMSO concentration 1%).
(§6) After a 30 minute incubation time, 5 μL of bead mix is added into columns 1-23. Plates are kept at rt in a darkened incubator. After a further 60 minutes incubation, the signal is measured using a PerkinElmer Envision HTS Multilabel Reader using the AlphaScreen specifications from PerkinElmer. Each plate contains the following controls:
(§7) diluted DMSO+KRAS::SOS1 GDP mix+bead mix
(§8) diluted DMSO+KRAS::SOS1 GDP mix
(§9) Result calculation: IC50 values are calculated and analyzed using a 4 parametric logistic model.
(§10) Table 1: Inhibition values for KRAS G12C as well as for KRAS G12D. […] The value indicates an average value of at least two measurements.

CYP3A4 = CYP3A4 (Homo sapiens (Human), UniProt P08684); experiment: Mechanism-based inhibition of CYP3A4 assay (MBI 3A4); assay type: in vitro ADME; details: human liver microsomes, midazolam substrate, hydroxy-midazolam formation after 30 min preincubation relative to 0 min; for inhibition at 30 min: human, probe midazolam 15 μM (hydroxy-midazolam formation), read-out: MBI inhibition % ctrl. [%] with MDZ
Sequence of CYP3A4 (P08684 whole entry): as the sequence (P08684 whole entry) above
Description: Mechanism-Based Inhibition of CYP3A4 assay (MBI 3A4): The mechanism-based inhibition towards CYP3A4 is assayed in human liver microsomes with midazolam as substrate. The test compounds and water control (wells w/o test compound) are preincubated in presence of NADPH (1 mM) with human liver microsomes (0.2 mg/mL) at a concentration of 0, 5 and 25 μM for 0, 10 and 30 min. After preincubation, the incubate is diluted 1:10 (to 0.02 mg/mL) and the substrate midazolam (15 μM) is added for the main incubation (10 min). The main incubation is quenched with ACN and the formation of hydroxy-midazolam is quantified via LC/MS-MS. The formation of hydroxy-midazolam from the 30 min preincubation relative to the formation from the 0 min preincubation is used as a readout. Values of less than 100% mean that the substrate midazolam is metabolized to a lower extent upon 30 min preincubation compared to 0 min preincubation. In general, low effects upon 30 min preincubation are desired (corresponding to values close to 100%/not different to the values determined with water control).
Table 5: Mechanism-based inhibition of P450 isoenzyme 3A4 with midazolam as substrate.

human hepatocytes = experiment: Metabolic stability in human hepatocytes; details: 1 μM test compound, 50% human serum, percentage of liver blood flow
Description: The metabolic degradation of a test compound is performed with hepatocytes in suspension. After recovery from cryopreservation, human hepatocytes are diluted in Dulbecco's modified eagle medium (supplemented with 3.5 μg glucagon/500 mL, 2.5 mg insulin/500 mL, 3.75 mg hydrocortisone/500 mL, 50% human serum) to obtain a final cell density of 1.0×10^6 cells/mL. Following a preincubation in a cell culture incubator (37° C., 10% CO2), test compound dissolved in DMSO is mixed with the hepatocyte suspension, resulting in a final test compound concentration of 1 μM and a final DMSO concentration of 0.05%.
The cell suspension is incubated at 37° C. (cell culture incubator, horizontal shaker) and samples are removed from the incubation after 0, 0.5, 1, 2, 4 and 6 hours. Samples are quenched with acetonitrile (containing internal standard) and pelleted by centrifugation. The supernatant is transferred to a deep-well plate and prepared for analysis of decline of parent compound by HPLC-MS/MS.
The percentage of remaining test compound is calculated using the peak area ratio (test compound/internal standard) of each incubation time point relative to the time point 0 peak area ratio. The log-transformed data are plotted versus incubation time, and the absolute value of the slope obtained by linear regression analysis is used to estimate in vitro half-life (T1/2).
CL_[sequence]_IN VIVO[mL/min/kg]=(CL_[sequence][μL/min/10^6cells]×hepatocellularity[10^6cells/g liver]×liver factor[g/kg body weight])/1000
Hepatic in vivo blood clearance (CL) is predicted according to the well-stirred liver model considering an average liver blood flow (QH) of 20.7 mL/min/kg:
CL[mL/min/kg]=CL_[sequence]_IN VIVO[mL/min/kg]×hepatic blood flow[mL/min/kg]/(CL_[sequence]_IN VIVO[mL/min/kg]+hepatic blood flow[mL/min/kg])
Results are expressed as percentage of hepatic blood flow:
QH[%]=CL[mL/min/kg]/hepatic blood flow[mL/min/kg])

SOS1 and KRAS G12C = SOS1 and KRAS G12C (Homo sapiens (Human), UniProt Q07889); experiment: KRAS::SOS1 AlphaScreen binding assay (KRAS G12C); details: average of at least two measurements
Sequence of SOS1 and KRAS G12C (Q07889 564-1049, stated change not applied): as the sequence (Q07889 564-1049, stated change not applied) above
Description: as §1, §2, §3, §4, §5, §6, §7, §8, §9, §10

[2] = Homo sapiens, NCI-H358, NCI-H358 SOS2 KO cells

IC50 (P450 3A4) [nM] | IC50 ([1]; NCI-H358 SOS2 KO cells) [nM] | IC50 (SOS1 and KRAS G12D) [nM] | inhibition at 30 min (CYP3A4) [%] | Hepatic clearance - QH[%] in human hepatocytes (human hepatocytes) [%] | IC50 (SOS1 and KRAS G12C) [nM] | IC50 [1, 2] [nM] | MBI inhibition % ctrl. [%] with MDZ (CYP3A4) [%] | Structure (SMILES)
> 50000 | 201 | 32 | 98 | 30 | 38 | – | – | C[C@@H](NC(=O)c1cc(N2CCC(N3CCCC(O)CC3)CC2)c2ncnn2c1)c1cccc(C(F)F)c1F (single isomer, unassigned) [Example E17b]
> 50000 | – | 45 | 94 | 10 | 66 | 112 | – | C[C@@H](NC(=O)c1cc(N2CCC(O)(C3CCCN3)CC2)c2ncnn2c1)c1cccc(C(F)F)c1F (single isomer, unassigned) [Example E38a]
> 50000 | 217 | 41 | – | 11 | 59 | – | 86 | C[C@@H](NC(=O)c1cc(N2CCC(O)(C3CCCN3)CC2)c2ncnn2c1)c1cccc(C(F)F)c1F (single isomer, unassigned) [Example E38b]
> 50000 | 46 | 40 | 91 | 25 | 42 | – | – | C[C@@H](NC(=O)c1cc(N2CCC(N3CCCC(O)CC3)CC2)c2ncnn2c1)c1cccc(C(F)(F)F)c1F (single isomer, unassigned) [Example E43a]
> 50000 | – | 99 | 97 | 30 | 96 | 162 | – | C[C@@H](NC(=O)c1cc(N2CCC(N3CCCC(C)(O)C3)CC2)c2ncnn2c1)c1cccc(C(F)(F)F)c1F (single isomer, unassigned) [Example E47a]
> 50000 | 198 | 45 | – | 28 | 41 | – | 88 | C[C@@H](NC(=O)c1cc(N2CCC(N3CCCC(C)(O)C3)CC2)c2ncnn2c1)c1cccc(C(F)(F)F)c1F (single isomer, unassigned) [Example E47b]
> 50000 | – | 41 | 92 | 32 | 45 | 320 | – | C[C@@H](NC(=O)c1cc(N2CCC(NC3COCC3O)CC2)c2ncnn2c1)c1cccc(C(F)F)c1F (single isomer, unassigned) [Example cis-E16a]
> 50000 | 316 | 19 | – | 24 | 26 | – | 87 | C[C@@H](NC(=O)c1cc(N2CCC(NC3COCC3O)CC2)c2ncnn2c1)c1cccc(C(F)F)c1F (single isomer, unassigned) [Example cis-E16b]
> 50000 | – | 61 | 102 | 25 | 81 | 216 | – | C[C@@H](NC(=O)c1cc(N2CCC(N3CC4CC4(CO)C3)CC2)c2ncnn2c1)c1cccc(C(F)F)c1F (single isomer, unassigned) [Example cis-E21a]
> 50000 | 242 | 82 | – | 38 | 78 | – | 96 | C[C@@H](NC(=O)c1cc(N2CCC(N3CC4CC4(CO)C3)CC2)c2ncnn2c1)c1cccc(C(F)F)c1F (single isomer, unassigned) [Example cis-E21b]
> 50000 | 367 | 38 | 95 | 26 | 41 | – | – | C[C@@H](NC(=O)c1cc(N2CCC(NC3COCC3O)CC2)c2ncnn2c1)c1cccc(C(F)(F)F)c1F (single isomer, unassigned) [Example cis-E41b]
> 50000 | 40 | 70 | 98 | 14 | 71 | – | – | C[C@@H](NC(=O)c1cc(N2CCC3CCNC3C2)c2ncnn2c1)c1cccc(C(F)(F)F)c1F (single isomer, unassigned) [Example cis-E52b]
> 50000 | 183 | 26 | – | 18 | 26 | – | 101 | C[C@@H](NC(=O)c1cc(N2CCC(NC3COCC3O)CC2)c2ncnn2c1)c1cccc(C(F)(F)F)c1F (single isomer, unassigned) [Example trans-E42a]
